The values that follow come from article PMC5791972 (PLoS ONE, 2018).

Entries after “also recorded” stand apart in the source; their conditions may differ. Like-named read-outs stand apart in the source and are kept apart here. Where only a bound is given, the exact number is not on record here.

Data set [1] concerns CD-1 mice. As to the kind of experiment: Forced swim test.
Data set [2] has as its target T1, AR (h) (Homo sapiens, UniProt P10275, T878A).
T1 construct: AR (h) LNCaP cells [3H]methyltrienolone; host or cells: LNCaP cells (cytosol)
T1 sequence (P10275 1-920 T878A): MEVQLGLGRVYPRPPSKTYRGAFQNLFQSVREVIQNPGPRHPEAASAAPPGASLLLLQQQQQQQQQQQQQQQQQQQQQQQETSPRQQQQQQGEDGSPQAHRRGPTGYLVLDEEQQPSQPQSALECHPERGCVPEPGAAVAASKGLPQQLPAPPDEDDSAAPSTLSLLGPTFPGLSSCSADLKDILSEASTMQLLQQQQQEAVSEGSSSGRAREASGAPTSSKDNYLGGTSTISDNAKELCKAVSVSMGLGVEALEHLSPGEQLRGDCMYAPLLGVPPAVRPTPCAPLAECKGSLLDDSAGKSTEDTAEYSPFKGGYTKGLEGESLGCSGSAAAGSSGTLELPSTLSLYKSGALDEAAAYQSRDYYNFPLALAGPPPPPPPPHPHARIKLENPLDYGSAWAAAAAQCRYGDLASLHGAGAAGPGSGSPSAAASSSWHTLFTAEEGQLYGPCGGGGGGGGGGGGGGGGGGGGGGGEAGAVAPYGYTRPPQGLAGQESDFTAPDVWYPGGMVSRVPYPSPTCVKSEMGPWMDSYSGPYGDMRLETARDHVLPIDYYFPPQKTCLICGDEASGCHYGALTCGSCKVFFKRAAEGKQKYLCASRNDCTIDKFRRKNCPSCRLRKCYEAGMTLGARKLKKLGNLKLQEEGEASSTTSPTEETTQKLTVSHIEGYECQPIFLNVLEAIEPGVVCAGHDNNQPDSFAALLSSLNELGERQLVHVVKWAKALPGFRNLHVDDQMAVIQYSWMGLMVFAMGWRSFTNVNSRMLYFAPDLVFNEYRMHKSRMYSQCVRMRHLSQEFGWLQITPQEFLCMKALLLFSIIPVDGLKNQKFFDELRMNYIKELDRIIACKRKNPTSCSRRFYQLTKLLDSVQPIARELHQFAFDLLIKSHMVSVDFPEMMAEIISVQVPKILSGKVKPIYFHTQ
In kind it is binding. To be noted: 1.0E-06 M.

The subject of data set [3] is C57BL/6 (CSD) mice. As to the kind of experiment: Chronic social defeat and fear learning and memory. The conditions noted are these: 1 mg/kg oral. The format is in vivo, mouse.
For data set [4], the target named is T2, Kv7.1 (Homo sapiens, UniProt P51787).
T2 construct: expressed in transfected cells
As to the kind of experiment: Ion channel selectivity patch clamp. In kind it is cell-based. To be noted: Voltage (+20 mV).

Data set [5] in a line: Pharmacokinetic studies in mice. The conditions noted are these: male, C57BL/6, mouse, in vivo.
Data set [6] has as its system range of ion channels. As to the kind of experiment: Ion channel selectivity panel, whole-cell manual patch clamp. In kind it is cell-based. To be noted: at 1.9 μM.
Data set [7] has as its target T3, FLT-1 kinase (h) (VEGFR1) (Homo sapiens, UniProt P17948).
T3 construct: host or cells: Sf9 cells
Kind of data set: enzyme assay. The format is biochemical. To be noted: 1.0E-06 M.

Data set [8] concerns the target T4, MC4 (h) (Homo sapiens, UniProt P32245).
T4 construct: host or cells: CHO cells
In kind it is binding. The conditions noted are these: 1.0E-06 M.

For data set [9], the target named is T5, COX1 (h) (Homo sapiens, UniProt P23219).
T5 construct: Cerep (contract assay); host or cells: Sf9 cells
As to the kind of experiment: biochemical. The conditions noted are these: 1.0E-06 M.

In data set [10] the test system is SKCa channel. The format is binding, rat. To be noted: 1.0E-06 M.
The test system of data set [11] is α1 (non-selective). In kind it is binding, rat. To be noted: 1.0E-06 M.
Data set [12] concerns the target T6, UT (h) (Homo sapiens, UniProt Q9UKP6).
T6 construct: host or cells: CHO cells
T6 sequence (Q9UKP6 1-389): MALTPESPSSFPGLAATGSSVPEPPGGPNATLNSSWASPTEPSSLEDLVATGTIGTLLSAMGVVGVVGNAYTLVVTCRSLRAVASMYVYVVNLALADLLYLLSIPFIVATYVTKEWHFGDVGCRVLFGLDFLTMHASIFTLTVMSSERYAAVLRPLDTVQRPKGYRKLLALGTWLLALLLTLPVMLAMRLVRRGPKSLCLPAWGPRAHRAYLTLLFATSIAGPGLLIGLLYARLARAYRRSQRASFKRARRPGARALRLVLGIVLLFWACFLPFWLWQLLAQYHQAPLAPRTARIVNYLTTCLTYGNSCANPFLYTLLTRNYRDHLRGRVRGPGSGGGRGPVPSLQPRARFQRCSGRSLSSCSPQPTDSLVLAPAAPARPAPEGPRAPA
In kind it is binding.

Data set [13] has as its target T7, H2 (h) (Homo sapiens, UniProt P25021).
T7 construct: host or cells: CHO cells
In kind it is binding. To be noted: 1.0E-06 M.

The target of data set [14] is carbonic anhydrase II (h) (Homo sapiens, UniProt P00918). Kind of data set: biochemical. The conditions noted are these: 1.0E-06 M.
Data set [15] deals with T8, MT1 (ML1A) (h) (Homo sapiens, UniProt P48039).
T8 construct: host or cells: CHO cells
The format is binding. To be noted: 1.0E-06 M.

The target in data set [16] is T9, H4 (h) (Homo sapiens, UniProt Q9H3N8).
T9 construct: host or cells: HEK-293 cells
In kind it is binding. The conditions noted are these: 1.0E-06 M.

Data set [17] addresses CCK2 (CCKB) (h) (Homo sapiens, UniProt P32239). The format is binding. To be noted: 1.0E-06 M.

T8 sequence (P48039 whole entry): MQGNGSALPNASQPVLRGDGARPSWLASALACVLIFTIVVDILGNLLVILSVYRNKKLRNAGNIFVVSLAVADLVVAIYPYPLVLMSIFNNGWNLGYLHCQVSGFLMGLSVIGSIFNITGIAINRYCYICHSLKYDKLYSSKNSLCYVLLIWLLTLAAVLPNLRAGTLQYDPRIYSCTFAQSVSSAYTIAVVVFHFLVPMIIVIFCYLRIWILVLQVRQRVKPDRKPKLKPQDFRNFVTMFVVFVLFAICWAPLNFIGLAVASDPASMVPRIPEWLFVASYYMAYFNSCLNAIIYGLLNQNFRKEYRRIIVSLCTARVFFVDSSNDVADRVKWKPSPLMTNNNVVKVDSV
T3 sequence (P17948 27-1338): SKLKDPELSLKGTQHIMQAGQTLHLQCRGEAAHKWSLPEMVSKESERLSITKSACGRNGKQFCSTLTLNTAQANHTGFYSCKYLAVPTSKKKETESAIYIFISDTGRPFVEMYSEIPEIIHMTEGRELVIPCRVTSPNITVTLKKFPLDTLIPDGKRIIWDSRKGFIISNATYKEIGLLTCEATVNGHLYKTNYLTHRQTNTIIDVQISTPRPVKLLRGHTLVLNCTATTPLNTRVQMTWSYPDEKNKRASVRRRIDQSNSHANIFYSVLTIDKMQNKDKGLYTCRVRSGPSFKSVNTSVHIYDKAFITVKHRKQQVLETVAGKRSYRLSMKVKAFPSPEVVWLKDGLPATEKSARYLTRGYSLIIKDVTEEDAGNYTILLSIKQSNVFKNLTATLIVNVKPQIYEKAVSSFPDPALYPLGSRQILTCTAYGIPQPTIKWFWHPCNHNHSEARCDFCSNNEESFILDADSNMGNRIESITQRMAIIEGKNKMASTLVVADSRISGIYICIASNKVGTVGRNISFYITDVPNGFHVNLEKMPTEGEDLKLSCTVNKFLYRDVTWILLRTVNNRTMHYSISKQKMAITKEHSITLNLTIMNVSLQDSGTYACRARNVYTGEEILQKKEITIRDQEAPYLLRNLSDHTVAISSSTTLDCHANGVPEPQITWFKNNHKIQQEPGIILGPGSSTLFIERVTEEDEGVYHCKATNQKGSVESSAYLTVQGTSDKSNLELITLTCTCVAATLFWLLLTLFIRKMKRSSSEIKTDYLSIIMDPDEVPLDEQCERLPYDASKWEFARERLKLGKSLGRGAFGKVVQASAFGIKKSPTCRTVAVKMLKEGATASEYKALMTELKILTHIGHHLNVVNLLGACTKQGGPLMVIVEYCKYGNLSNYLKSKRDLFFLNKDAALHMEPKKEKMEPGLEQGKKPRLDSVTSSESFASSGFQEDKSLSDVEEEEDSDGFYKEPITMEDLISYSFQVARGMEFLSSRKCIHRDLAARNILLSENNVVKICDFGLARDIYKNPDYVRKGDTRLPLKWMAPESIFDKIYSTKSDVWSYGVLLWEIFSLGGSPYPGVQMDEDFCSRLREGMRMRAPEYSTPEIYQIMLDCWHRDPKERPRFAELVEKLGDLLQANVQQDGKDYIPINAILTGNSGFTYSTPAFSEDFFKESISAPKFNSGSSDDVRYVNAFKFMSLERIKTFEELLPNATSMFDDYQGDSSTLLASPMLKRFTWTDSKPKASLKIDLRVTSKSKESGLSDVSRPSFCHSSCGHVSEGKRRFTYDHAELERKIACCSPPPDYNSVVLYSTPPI
Chain of CCK2 (CCKB) (h) (P32239 whole entry): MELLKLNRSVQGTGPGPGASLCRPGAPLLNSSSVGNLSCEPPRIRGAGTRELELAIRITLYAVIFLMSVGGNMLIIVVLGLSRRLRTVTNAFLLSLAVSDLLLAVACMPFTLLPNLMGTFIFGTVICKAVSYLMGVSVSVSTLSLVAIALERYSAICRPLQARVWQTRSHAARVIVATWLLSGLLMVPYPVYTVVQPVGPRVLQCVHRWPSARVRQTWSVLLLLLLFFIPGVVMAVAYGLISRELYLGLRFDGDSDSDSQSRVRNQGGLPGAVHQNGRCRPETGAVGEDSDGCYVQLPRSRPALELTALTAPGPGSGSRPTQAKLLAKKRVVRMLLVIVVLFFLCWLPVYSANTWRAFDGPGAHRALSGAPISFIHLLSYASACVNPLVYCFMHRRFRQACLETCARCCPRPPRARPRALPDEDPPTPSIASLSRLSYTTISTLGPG
T4 sequence (P32245 whole entry): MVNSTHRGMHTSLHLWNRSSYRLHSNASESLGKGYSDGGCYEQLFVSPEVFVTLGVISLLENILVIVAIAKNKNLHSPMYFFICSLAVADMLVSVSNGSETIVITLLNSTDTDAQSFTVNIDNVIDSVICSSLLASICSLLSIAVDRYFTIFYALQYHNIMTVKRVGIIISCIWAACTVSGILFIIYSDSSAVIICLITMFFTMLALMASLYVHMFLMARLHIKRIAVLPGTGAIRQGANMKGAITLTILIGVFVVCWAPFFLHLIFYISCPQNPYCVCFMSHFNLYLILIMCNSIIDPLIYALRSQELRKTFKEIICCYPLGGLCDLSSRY
T5 sequence (P23219 24-599): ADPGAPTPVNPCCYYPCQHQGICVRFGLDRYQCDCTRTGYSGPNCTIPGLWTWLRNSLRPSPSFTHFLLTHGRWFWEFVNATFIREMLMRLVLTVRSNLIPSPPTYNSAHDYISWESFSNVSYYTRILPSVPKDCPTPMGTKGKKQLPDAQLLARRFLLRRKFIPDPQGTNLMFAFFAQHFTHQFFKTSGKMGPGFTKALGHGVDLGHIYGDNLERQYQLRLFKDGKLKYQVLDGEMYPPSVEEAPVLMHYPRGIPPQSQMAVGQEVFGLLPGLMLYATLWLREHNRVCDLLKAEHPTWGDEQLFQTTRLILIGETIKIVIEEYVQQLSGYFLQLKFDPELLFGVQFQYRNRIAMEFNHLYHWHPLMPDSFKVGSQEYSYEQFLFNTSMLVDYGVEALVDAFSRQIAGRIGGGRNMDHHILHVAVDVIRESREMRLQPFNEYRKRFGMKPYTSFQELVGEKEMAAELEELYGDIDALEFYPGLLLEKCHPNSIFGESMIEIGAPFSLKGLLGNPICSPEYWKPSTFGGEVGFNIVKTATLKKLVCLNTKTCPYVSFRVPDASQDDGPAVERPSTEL
T7 sequence (P25021 whole entry): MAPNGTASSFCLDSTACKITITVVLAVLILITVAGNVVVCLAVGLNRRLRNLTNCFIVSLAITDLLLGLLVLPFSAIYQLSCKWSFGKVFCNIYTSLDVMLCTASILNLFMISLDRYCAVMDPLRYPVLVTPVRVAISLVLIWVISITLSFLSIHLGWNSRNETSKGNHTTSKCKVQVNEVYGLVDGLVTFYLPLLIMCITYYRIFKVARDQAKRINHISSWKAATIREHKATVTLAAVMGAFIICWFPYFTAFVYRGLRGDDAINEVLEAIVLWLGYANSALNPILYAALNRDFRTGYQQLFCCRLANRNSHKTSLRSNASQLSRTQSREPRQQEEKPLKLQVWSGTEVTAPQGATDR
T9 sequence (Q9H3N8 whole entry): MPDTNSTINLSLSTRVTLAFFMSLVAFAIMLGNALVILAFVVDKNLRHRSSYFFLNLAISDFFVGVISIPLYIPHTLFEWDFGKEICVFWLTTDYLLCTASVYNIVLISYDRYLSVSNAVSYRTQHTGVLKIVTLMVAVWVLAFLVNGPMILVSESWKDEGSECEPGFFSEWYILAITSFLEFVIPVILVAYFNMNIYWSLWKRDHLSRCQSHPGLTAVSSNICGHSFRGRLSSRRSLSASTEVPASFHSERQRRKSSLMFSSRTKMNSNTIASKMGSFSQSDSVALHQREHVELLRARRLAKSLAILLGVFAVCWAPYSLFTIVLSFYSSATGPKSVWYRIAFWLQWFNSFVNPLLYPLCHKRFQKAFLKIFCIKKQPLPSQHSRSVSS

Regarding `Cn1c(=O)n(CCCO)c(=O)c2c1nc(Oc1cccc(Cl)c1)n2Cc1ccc(Cl)cc1` [HC-070], the immobility time entry in data set [1] (0.3, 1 or 3 mg/kg PO, 60 min prior, CD-1 mice) was “reduced the immobility time; also recorded: significantly decreased”. Moreover, the IC50 was 0.058 µM in [1] (Mus musculus, read-out: IC50 of immobility versus average plasma exposure (PK-PD)) and above 1.9 µM in data set [4]. Also, in data set [1] (male, CD-1 and C57BL/6, mouse, in vivo), the “calculated free brain concentration corresponding to PK-PD IC50” value is 0.00016 µM. Also, the figures for the inhibition at 1 µM in data set [2] (read-out: % Inhibition 1st), in [2] (read-out: % Inhibition 2nd) and in data set [2] (read-out: % Inhibition Mean) were 11.1%, 3.2% and 7.1%, respectively. Besides, the “CS fear memory in CSD mice” value in [3] is “tended to reduce”. Further, the “context fear memory in CSD mice” value in [3] was “significantly reduced”. The “freezing in inter-trial intervals between CS presentations, CSD mice” value in data set [3] is given as “ameliorated to the level of control mice; also recorded: reduced fear memory in CSD mice”. Moreover, the half-life is 3.5 h in data set [5] (iv, 1 mg/kg) and 3.3 h in data set [5] (po, 10 mg/kg). Further, in [6], the “inhibition in most cases” value is at most 50%.

On to `Cn1c(=O)n(CCCO)c(=O)c2c1nc(Oc1cccc(OC(F)(F)F)c1)n2Cc1ccc(Cl)cc1` [HC-608], for which the inhibition at 1 µM in data set [7] (read-out: % Inhibition 1st) was 9.3%; in data set [7] (read-out: % Inhibition 2nd) it was 7.3%; in data set [7] (read-out: % Inhibition Mean), 8.3%; in data set [8] (read-out: % Inhibition 1st), 2.9%; in data set [8] (read-out: % Inhibition 2nd), -4.8%; in [8] (read-out: % Inhibition Mean), -1%. For the same molecule, the inhibition at 1 µM in data set [9] (read-out: % Inhibition 1st) is -1.5%; in data set [9] (read-out: % Inhibition 2nd) it was 27.2%; in [9] (read-out: % Inhibition Mean), 12.9%; in data set [12] (1.0E-06 M, read-out: % Inhibition 2nd), 7%; in [12] (1.0E-06 M, read-out: % Inhibition Mean) it was 9.3%; in data set [12] (read-out: % Inhibition 1st) it was 11.5%. In addition, the inhibition at 1 µM in [13] (read-out: % Inhibition 1st) was 1.1%; in [13] (read-out: % Inhibition 2nd), 7.7%; in data set [13] (read-out: % Inhibition Mean) it was 4.4%; in data set [14] (read-out: % Inhibition 1st) it was -0.9%; in [14] (read-out: % Inhibition 2nd), 0.2%; in [14] (read-out: % Inhibition Mean), -0.4%. Besides, the inhibition at 1 µM in [15] (read-out: % Inhibition 1st) was 2.2%; in data set [15] (read-out: % Inhibition 2nd), -0.9%; in data set [15] (read-out: % Inhibition Mean), 0.7%; in data set [16] (read-out: % Inhibition 1st), -13.6%; in data set [16] (read-out: % Inhibition 2nd) it was -1.9%; in data set [16] (read-out: % Inhibition Mean) it was -7.8%. The values for the inhibition at 1 µM in data set [17] (read-out: % Inhibition 1st), in data set [17] (read-out: % Inhibition 2nd) and in data set [17] (read-out: % Inhibition Mean) were -13.8%, -0.7% and -7.2%, respectively. For the same molecule, the “% Inhibition 1st” value in data set [10] is -2.5%; in data set [11] it was -2.8%. In addition, the “% Inhibition 2nd” value in [10] is recorded as -4.7%; in data set [11], 1.1%. Moreover, the “% Inhibition Mean” value is reported as -3.6% in [10] and -0.8% in data set [11].
